Measurements reported in US20230008317A1, “Z-STILBENE AMPK ACTIVATOR COMPOUNDS, COMPOSITIONS, METHODS AND USES THEREOF” (SOCIETE DES PRODUITS NESTLE S.A., priority 2019, published 2023).

What was measured:
AMPKα2β1γ1 = target: T1, AMPKα2β1γ1 (Homo sapiens, UniProt P54619+P54646+Q9Y478); assay: HTRF KinEASE activation assay with bacterially-expressed, phosphorylated purified AMPKα2β1γ1 complex; type: biochemical; conditions: varying concentrations, 30 mins incubation, cell-free; FIG. 1
T1 construct: His; made in house
Procedure: Varying concentrations of compound 1 was incubated with phosphorylated purified AMPK α2β1γ1 for 30 mins. AMPK activity was determined using the HTRF KinEASE assay kit and results are presented as the ratio of 665/620 nm (STK1 phosphorylation).
The AMPKα2β1γ1 complex was expressed in bacteria and purified through the His-α subunit by nickel purification, purified through gel filtration and phosphorylated by incubation with CaMKKβ, and then further purified through a final gel filtration purification step. Phosphorylated purified AMPK was incubated with varying concentrations of ligand for 30 mins along with substrate and reagents from the HTRF-KinEASE Cisbio assay kit (STK S1 Kit). Phosphorylation of the substrate was measured by incubating with donor and acceptor antibodies for 2 h at room temperature as per the manufacturer's protocol (and Coulerie et al., (2016), see below) and phosphorylated peptide detected by performing HTRF.

[1] = system: U-2 OS Flp-In T-REx cells (phosphorylation of acetyl-CoA carboxylase, ACC); assay: pACC HTRF assay: phosphorylation of the AMPK substrate ACC in U-2 OS Flp-In T-REx cells; type: cell-based; conditions: varying concentrations, 30 mins at 37 C, media lacking FBS; FIG. 2
Procedure: U-2 OS cells were treated with varying concentrations of compound 1 for 30 mins at 37 C. Phosphorylation of ACC was assessed using the HTRF Cisbio (pACC kit).
U-2 OS Flp-In T-REx cells were seeded at 50 K in a 96-well plate and left overnight at 37 C in DMEM GlutaMAX (Thermo Fisher Scientific) supplemented with 10% (vol/vol) FBS and 100 U/ml penicillin G, and 100 μg/ml streptomycin. Cells were treated for 30 mins with varying concentrations of compound 1 in media lacking FBS and then cells were lysed in 50 μl of Cisbio lysis buffer #1 supplemented with blocking solution as per the manufacturer's protocol (Cisbio). Cells were lysed for 30 mins at room temperature before 16 μl of lysate was incubated with 4 μl of the HTRF antibodies (1:40 dilution of the acceptor and donor (p)ACC antibodies, as per the manufacturers protocol). Lysates were incubated overnight with the antibodies before 665 nm/620 nm ratio was determined using a MolecularDevices i3 plate reader (with a HTRF cartridge add-on). The results are plotted as fold activation compared to the respective AMPK complex without any compound.

T1 sequence (P54646 whole entry): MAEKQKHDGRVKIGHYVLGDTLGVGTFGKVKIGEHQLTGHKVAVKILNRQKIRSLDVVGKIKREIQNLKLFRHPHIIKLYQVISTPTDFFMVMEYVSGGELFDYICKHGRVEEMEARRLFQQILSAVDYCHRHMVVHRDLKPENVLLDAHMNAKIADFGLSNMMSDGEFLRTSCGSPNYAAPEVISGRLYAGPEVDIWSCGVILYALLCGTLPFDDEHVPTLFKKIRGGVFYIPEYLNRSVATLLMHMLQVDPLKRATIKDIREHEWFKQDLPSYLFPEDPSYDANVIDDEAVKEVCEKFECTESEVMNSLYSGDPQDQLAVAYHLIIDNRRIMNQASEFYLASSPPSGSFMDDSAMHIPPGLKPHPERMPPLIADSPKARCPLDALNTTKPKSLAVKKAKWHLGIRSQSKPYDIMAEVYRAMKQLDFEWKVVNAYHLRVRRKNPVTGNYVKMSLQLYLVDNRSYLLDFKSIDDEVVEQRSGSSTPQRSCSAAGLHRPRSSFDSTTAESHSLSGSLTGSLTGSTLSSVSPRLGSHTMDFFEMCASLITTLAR
T1 sequence (Q9Y478 whole entry): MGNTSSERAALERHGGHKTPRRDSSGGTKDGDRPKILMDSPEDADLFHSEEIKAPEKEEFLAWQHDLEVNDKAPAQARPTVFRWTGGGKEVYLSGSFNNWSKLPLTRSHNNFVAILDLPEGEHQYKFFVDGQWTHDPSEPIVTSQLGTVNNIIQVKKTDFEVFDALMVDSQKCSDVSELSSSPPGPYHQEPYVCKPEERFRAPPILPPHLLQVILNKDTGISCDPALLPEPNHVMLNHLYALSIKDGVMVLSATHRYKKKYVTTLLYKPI
T1 sequence (P54619 whole entry): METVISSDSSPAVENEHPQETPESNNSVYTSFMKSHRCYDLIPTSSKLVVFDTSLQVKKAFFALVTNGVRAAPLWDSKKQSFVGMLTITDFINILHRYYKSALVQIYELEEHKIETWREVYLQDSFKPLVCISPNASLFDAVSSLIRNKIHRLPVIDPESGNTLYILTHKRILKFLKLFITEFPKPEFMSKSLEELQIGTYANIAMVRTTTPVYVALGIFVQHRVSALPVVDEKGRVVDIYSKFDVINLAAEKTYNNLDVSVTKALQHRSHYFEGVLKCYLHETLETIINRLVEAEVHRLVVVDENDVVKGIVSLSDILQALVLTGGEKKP

- AMPK activity (STK1 substrate phosphorylation, 665 nm/620 nm ratio) (AMPKα2β1γ1): allosterically activates AMPKα2β1γ1
Structure (SMILES): COc1cc(O)cc(/C=C\c2cccc(O)c2)c1 [compound 1, (Z)-3,3′-Dihydroxy-5-methoxystilbene]
- Phosphorylation of ACC (fold activation relative to untreated cells) [1]: increased the phosphorylation of the AMPK substrate, ACC, in a dose-dependent manner
